We go through three compounds from patent publication US9388170B2, “Substituted aminoquinazolines useful as kinases inhibitors” (TELIGENE LTD., priority 2012, dated 2016).

The structures appear in SMILES notation. Converted amounts (≈) assume the structure as drawn. Like-named read-outs stand apart in the source and are kept apart here.

A short description of data set [1]: In vivo NCI-H1975 study AST and ALT change. The note with it: NCI-H1975 xenograft, nude mice, 15 mg/kg; in U/L (unit assumed). As to the method: (§1) A representative protocol for the in vivo experiment is as followed to establish the subcutaneous NCI-H1975 cell line xenograft model in nude mice and to evaluate the in vivo therapeutic efficacy of the compounds: H1975 cells were cultured in RPMI1640 containing 10% fetal bovine serum, 1% L-glutamine, 100 U/mL penicillinG and 100 μg/mL streptomycin. Cells in logarithmic growth phase were harvested and resuspended in 1×PBS for implantation. Tumor xenografts were established by injecting tumor cells 5×10^6/mouse into the right flank by sc under sterile conditions. When the tumors reached an appropriate size (100-200 mm^3), mice were randomized into 6 mice per group (8 mice in control group). The tumors were measured using a caliper in two dimensions, length (a), and width (b). Tumor volumes were estimated from measurements of two diameters of the individual tumors as follows: Tumor Volume(mm^3)=(a×b^2)/2 The tumor sizes and animal body weights were measured twice a week. Mice were observed daily for clinical signs. Blood samples were collected 2 hours after last treatment, plasma samples were prepared and stored at -80° C. Tumor tissues were separated, weighed, taken picture, and subsequently stored at -80° C. for further analysis. All animal experiments were performed in accordance with the Guidelines for Use and Care of Animals of the University of Traditional Medicine. The parameters for in vivo efficacy evaluation were calculated according to the guidance of SFDA. Percent T/C (%) was calculated with the following formula: T/C (%)=(TRTV/CRTV)×100%, where TRTV and CRTV stand for relative tumor volume in treatment group and vehicle control group, respectively. Relative tumor volume (RTV) was calculated using the formula: RTV=Vt/V0, where Vt represents volume on testing day, and V0 represents volume on first day of treatment.

Data set [2] can be described thus: In vivo NCI-H1975 xenograft study body weight change. The note with it: nude mice, 15 mg/kg. The protocol: as §1
Data set [3] in a line: In vivo A431 xenograft body weight change. The note with it: nude mice, 10 mg/kg. The protocol: (§2) A representative protocol for the in vivo experiment to establish the subcutaneous A431 cell line xenograft model in nude mice and to evaluate the in vivo therapeutic efficacy of the compounds is similar to the protocol described for subcutaneous NCI—H1975 cell line xenograft model in nude mice. […] Tumor growth inhibition (TGI, %) was calculated.

In data set [4] the test system is NCI—H1975 cell line xenograft. The data set is described as follows: In vivo subcutaneous NCI-H1975 xenograft efficacy. The note with it: nude mice. As to the method:
A representative protocol for the in vivo experiment is as followed to establish the subcutaneous NCI—H1975 cell line xenograft model in nude mice and to evaluate the in vivo therapeutic efficacy of the compounds: H1975 cells were cultured in RPMI1640 containing 10% fetal bovine serum, 1% L-glutamine, 100 U/mL penicillinG and 100 μg/mL streptomycin. Cells in logarithmic growth phase were harvested and resuspended in 1×PBS for implantation.
Tumor xenografts were established by injecting tumor cells 5×10^6/mouse into the right flank by sc under sterile conditions. When the tumors reached an appropriate size (100-200 mm^3), mice were randomized into 6 mice per group (8 mice in control group). The tumors were measured using a caliper in two dimensions, length (a), and width (b). […]
The tumor sizes and animal body weights were measured twice a week. […] The parameters for in vivo efficacy evaluation were calculated according to the guidance of SFDA. Percent T/C (%) was calculated with the following formula: T/C (%)=(TRTV/CRTV)×100%, where TRTV and CRTV stand for relative tumor volume in treatment group and vehicle control group, respectively. Relative tumor volume (RTV) was calculated using the formula: RTV=Vt/V0, where Vt represents volume on testing day, and V0 represents volume on first day of treatment. […]

The subject of another data set is NCI—H1975. Nature of the data set: Cell proliferation assay (MTT), NCI-H1975. The format is cell-based. The note with it: Homo sapiens, NCI—H1975 cells, 72 hours, read-out: potency (IC50), NCI—H1975 cell assay. The protocol:
(§3) A Representative Number of Compounds were Assayed Against Different Cancer Cell Lines Such as A431, BT474, NCI—H1975, SK—OV-3, SK—Br-3 and A549 Using the Cell Proliferation Assays:
(§4) 1. 5×10^3 cells per well in 100 μl of medium were seeded in 96-well plate, here the medium contained 5% FBS
(§5) 2. 24 hours later, 100 μl fresh medium was added with various concentrations of compounds into each well, while the medium here was free of FBS.
(§6) 3. After the cells were treated with compounds for 72 hours, 20 μl MTT (5 mg/ml) was added into each well, and then the assay plate was incubated at 37° C. for 4 more hours.
(§7) 4. The assay plate was centrifuged at 800 g for 10 min. The medium was aspirated, 150 μl DMSO was added into each well. The plate was gently shaken for 10 min.
(§8) 5. The absorbance at 570 nm was measured on the plate reader.

Data set [5] is described as follows: Solubility measurement (HPLC). In kind it is physicochemical. As to conditions: thermodynamic from solid. As to the method:
The compound was diluted with acetonitrile to 100 mL.
The solution was shook for 2 minutes and left for 30 minutes at 25° C. After standing for 30 minutes, precipitate was formed in the bottom of the EP. The solutions was filtered through 0.2 um membrane filter, and then diluted by 50 times with water.
The standard and sample solutions were injected into the HPLC on a Shim-Pack CLC-ODS C18 column (150 mm×6.0 mm, 5 um) with the same volume. The mobile phase consisted of acetonitrile with 2% […] −20 mM KH2PO4 buffer (pH=6.8) at a flow rate of 1 mL/minutes (40:60). The detection wavelength is at 264 nm. Calculation: solubility of sample=the concentration of standard×Area of sample×50/Area of standard.

For a further data set, the system named is BT474. Nature of the data set: Cell proliferation assay (MTT), BT474. The format is cell-based. The note with it: Homo sapiens, BT-474, BT474 cells, 72 hours. The protocol: as §3, §4, §5, §6, §7, §8
In a further data set the test system is SK—OV-3. Nature of the data set: Cell proliferation assay (MTT), SK-OV-3. The format is cell-based. As to conditions: Homo sapiens, SK—OV-3 cells, 72 hours, read-out: potency (IC50), SK—OV-3 cell assay. The protocol:
as §3, §4, §5, §6, §7, §8

The subject of another data set is A549. The data set is described as follows: Cell proliferation assay (MTT), A549. The format is cell-based. The note with it: Homo sapiens, A549 cells, 72 hours, read-out: potency (IC50), A549 cell assay. As to the method: as §3, §4, §5, §6, §7, §8
In another data set the test system is A431. The data set is described as follows: Cell proliferation assay (MTT), A431. The format is cell-based. The note with it: Homo sapiens, A-431, A431 cells, 72 hours. As to the method:
as §3, §4, §5, §6, §7, §8

The test system of another data set is SK—Br-3. The data set is described as follows: Cell proliferation assay (MTT), SK-Br-3. As to conditions: Homo sapiens, SK—Br-3 cells, 72 hours, read-out: potency (IC50), SK—Br-3 cell assay. The format is cell-based. The protocol: as §3, §4, §5, §6, §7, §8
The target of another data set is EGFR (T790M/L858R) (Homo sapiens (Human), UniProt P00533, L858R/T790M). The data set is described as follows: In vitro EGFR (T790M/L858R) kinase activity inhibition assay (Kinase-Glo Plus luminescence). As to conditions: 10 μM ATP, read-out: potency (IC50), enzyme assay (EGFR/T790M). In kind it is biochemical. As to the method: 2. […] It measures kinase activity by quantitating the amount of ATP remaining in solution following a kinase reaction. The luminescent signal from the assay is correlated with the amount of ATP present and is inversely correlated with the amount of kinase activity. […] Luminescence signal was measured using a BioTek Synergy 2 microplate reader.
Sequence of EGFR (T790M/L858R) (P00533 25-1210 T790M/L858R): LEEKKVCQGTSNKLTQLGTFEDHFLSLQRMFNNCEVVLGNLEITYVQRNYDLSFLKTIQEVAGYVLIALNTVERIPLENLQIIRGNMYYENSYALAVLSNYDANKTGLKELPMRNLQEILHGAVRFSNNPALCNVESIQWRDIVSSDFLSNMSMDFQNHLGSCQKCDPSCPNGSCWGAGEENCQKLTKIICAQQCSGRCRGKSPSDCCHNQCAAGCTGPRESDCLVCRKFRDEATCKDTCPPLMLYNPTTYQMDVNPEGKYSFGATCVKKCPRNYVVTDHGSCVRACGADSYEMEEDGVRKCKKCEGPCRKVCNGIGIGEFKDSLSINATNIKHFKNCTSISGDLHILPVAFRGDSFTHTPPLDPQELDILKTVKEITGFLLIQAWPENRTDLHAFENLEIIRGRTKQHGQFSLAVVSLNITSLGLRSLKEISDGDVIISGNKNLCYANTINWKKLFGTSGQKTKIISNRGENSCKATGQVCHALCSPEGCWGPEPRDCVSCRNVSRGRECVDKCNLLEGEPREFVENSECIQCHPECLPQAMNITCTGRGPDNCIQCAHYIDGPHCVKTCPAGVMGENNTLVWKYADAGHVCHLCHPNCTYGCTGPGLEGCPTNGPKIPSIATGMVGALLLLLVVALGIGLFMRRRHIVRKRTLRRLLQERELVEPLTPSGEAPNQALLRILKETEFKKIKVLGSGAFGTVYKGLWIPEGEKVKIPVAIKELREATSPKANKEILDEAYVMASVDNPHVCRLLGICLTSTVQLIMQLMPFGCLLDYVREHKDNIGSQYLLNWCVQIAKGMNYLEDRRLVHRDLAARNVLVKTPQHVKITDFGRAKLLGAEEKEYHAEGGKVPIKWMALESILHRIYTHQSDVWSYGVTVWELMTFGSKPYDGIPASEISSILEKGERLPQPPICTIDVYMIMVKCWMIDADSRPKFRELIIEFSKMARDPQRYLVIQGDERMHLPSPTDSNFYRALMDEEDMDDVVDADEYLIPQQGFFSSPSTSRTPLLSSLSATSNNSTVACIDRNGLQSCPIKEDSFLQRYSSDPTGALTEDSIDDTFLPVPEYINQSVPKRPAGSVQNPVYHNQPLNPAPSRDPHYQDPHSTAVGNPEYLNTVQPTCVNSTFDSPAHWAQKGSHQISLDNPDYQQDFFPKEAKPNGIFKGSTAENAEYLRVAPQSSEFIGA
3. […] The luminescence data were analyzed using the computer software, Graphpad Prism. […] The IC50 value was determined by the concentration causing a half-maximal percent activity.
In general terms: Kinase-Glo measures the ATP left after a reaction by luminescence.

For the next data set, the system named is A431 cell line xenograft. The data set is described as follows: In vivo subcutaneous A431 xenograft efficacy. As to conditions: nude mice, 10 mg/kg by oral gavage once daily for 14 days. The protocol: as §2
Setting [6] is: aqueous buffer, pH 6.8 buffer solution (20 mM), 25° C., read-out: Solubility at pH 6.8.
Setting [7] is: buffer solution (pH 7.6), 25 °C, pH 7.6, aqueous buffer, read-out: Solubility at pH 7.6.

In data set [1], `CN(C)C/C=C/C(=O)Nc1cc2c(Nc3ccc(F)c(Cl)c3)ncnc2cc1O[C@H]1CCOC1` [Afatinib, reference compound] returned an ALT of 49.50 and an AST of 265.67. The “Day 7 Weight change” value in data set [2] was −0.9%. For the same compound, in data set [3], the “Body weight change, Day 7” value is given as −2.2% and the “Body weight change, Day 10” value turned out to be 0.4%.
Regarding `C#Cc1cccc(Nc2ncnc3cc(O[C@H]4CCOC4)c(NC(=O)/C=C/CN(C)C)cc23)c1` [Compound 13, (S,E)-4-(dimethylamino)-N-(4-((3-ethynylphenyl)amino)-7-((tetrahydrofuran-3-yl)oxy)quinazolin-6-yl)but-2-enamide], the “efficacy in the NCI—H1975 xenograft study” value in data set [4] is given as “good efficacy”. For the same compound, the IC50 with NCI—H1975 is under 10 µM; in the data set on BT474, 0.057 µM; in the data set with SK—OV-3 it was under 10 µM; in the data set with A549 it was under 10 µM; in the data set on A431, 3.1 µM; in the data set with SK—Br-3 it was under 10 µM. In addition, the IC50 on EGFR (T790M/L858R) is under 0.1 µM. Further, the solubility at 30 min is 150 µg/mL (≈ 328 µM) in data set [5] (setting [6]) and 25 µg/mL (≈ 54.6 µM) in data set [5] (setting [7]). In addition, in data set [2], the “Day 7 Weight change” value stood at 0.1%.
In [1], `C#Cc1cccc(Nc2ncnc3cc(O[C@H]4CCOC4)c(NC(=O)/C=C/CN(CC)CC)cc23)c1` [Compound 20, (S,E)-4-(diethylamino)-N-(4-((3-ethynylphenyl)amino)-7-((tetrahydrofuran-3-yl)oxy)quinazolin-6-yl)but-2-enamide] yielded an ALT of 41.67. The compound also registered an AST in data set [1] of 142.33. In addition, the IC50 with NCI—H1975, in the data set with SK—OV-3, in the data set on A549 and with SK—Br-3 was under 10 µM in each case. Also, the solubility at 30 min was 3370 µg/mL (≈ 6950 µM) in [5] (setting [6]) and 238 µg/mL (≈ 490 µM) in data set [5] (setting [7]). The “Tumor growth inhibition (TGI, %)” value with A431 cell line xenograft came out at 94%. For the same compound, in [2], the “Day 7 Weight change” value is 3.5%. Besides, the “Body weight change, Day 7” value in data set [3] is on record as 1.5%. Moreover, the “Body weight change, Day 10” value in data set [3] came out at 4.3%.

A word on the solubility: it is the concentration that dissolves in the medium under given conditions.
